Experimental data as given in the supplement of paper PMC10307832.

Columns and labels:
Test in all cases: relative viability (nuclei count vs DMSO), 5 days (fraction); higher = more cells survive
[1] = compound: Nc1ccn([C@@H]2O[C@H](CO)[C@@H](O)C2(F)F)c(=O)n1 [Gemcitabine] + Nc1nc2[nH]cc(CCc3ccc(C(=O)N[C@@H](CCC(=O)O)C(=O)O)cc3)c2c(=O)[nH]1 [Pemetrexed] (partner 0.2 µM)
Summary of the method: (§1)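 Values are medians from duplicate plates. Each reflects relative viability, defined as the nuclei count of treated wells over that of vehicle wells. Lung cancer cell lines in 1536-well plates were pin-tool dosed one day after seeding with one drug alone or with a fixed anchor-drug dose plus five library-drug doses (not always all listed) in √10 steps, then fixed, stained and imaged at 4× after 5 days.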

[2] = compound: Nc1ccn([C@@H]2O[C@H](CO)[C@@H](O)C2(F)F)c(=O)n1 [Gemcitabine] + CC1(C)CCC(c2ccc(Cl)cc2)=C(CN2CCN(c3ccc(C(=O)NS(=O)(=O)c4ccc(N[C@H](CCN5CCOCC5)CSc5ccccc5)c(S(=O)(=O)C(F)(F)F)c4)cc3)CC2)C1 [Navitoclax] (partner 0.5 µM)
Summary of the method: as §1

[3] = compound: Nc1ccn([C@@H]2O[C@H](CO)[C@@H](O)C2(F)F)c(=O)n1 [Gemcitabine] + C[C@]1(O)C[C@@H](c2nc(-c3ccc4ccc(-c5ccccc5)nc4c3)c3c(N)nccn32)C1 [Linsitinib] (partner 1 µM)
Summary of the method: as §1

[4] = compound: Nc1ccn([C@@H]2O[C@H](CO)[C@@H](O)C2(F)F)c(=O)n1 [Gemcitabine] + O=C(CCCCCCC(=O)Nc1ccccc1)NO [Vorinostat] (partner 1 µM)
Summary of the method: as §1

Cell Line | relative viability ([1]; first compound 0.001 µM) | relative viability ([1]; first compound 0.003162 µM) | relative viability ([1]; first compound 0.01 µM) | relative viability ([1]; first compound 0.03162 µM) | relative viability ([1]; first compound 0.1 µM) | relative viability ([2]; first compound 0.001 µM) | relative viability ([2]; first compound 0.003162 µM) | relative viability ([2]; first compound 0.01 µM) | relative viability ([2]; first compound 0.03162 µM) | relative viability ([2]; first compound 0.1 µM) | relative viability ([3]; first compound 0.001 µM) | relative viability ([3]; first compound 0.003162 µM) | relative viability ([3]; first compound 0.01 µM) | relative viability ([3]; first compound 0.03162 µM) | relative viability ([3]; first compound 0.1 µM) | relative viability ([4]; first compound 0.001 µM) | relative viability ([4]; first compound 0.003162 µM) | relative viability ([4]; first compound 0.01 µM) | relative viability ([4]; first compound 0.03162 µM) | relative viability ([4]; first compound 0.1 µM)
NCI-H1734 | 0.408 | 0.377 | 0.197 | 0.139 | 0.136 | 0.843 | 0.562 | 0.195 | 0.106 | 0.0836 | 0.909 | 0.806 | 0.457 | 0.129 | 0.13 | 0.746 | 0.626 | 0.119 | 0.114 | 0.0915
NCI-H1755 | 0.414 | 0.47 | 0.319 | 0.376 | 0.355 | 0.925 | 1.04 | 0.827 | 0.256 | 0.153 | 0.957 | 1.06 | 0.975 | 0.347 | 0.259 | 0.804 | 0.751 | 0.599 | 0.469 | 0.313
NCI-H1793 | 1.09 | 0.98 | 0.406 | 0.139 | 0.141 | 0.488 | 0.474 | 0.169 | 0.216 | 0.151 | 1 | 0.857 | 0.539 | 0.16 | 0.135 | 0.985 | 0.62 | 0.152 | 0.148 | 0.106
NCI-H1915 | 0.484 | 0.516 | 0.453 | 0.513 | 0.475 | 0.768 | 0.789 | 0.785 | 0.797 | 0.364 | 1.12 | 1.09 | 1.11 | 0.92 | 0.442 | 0.49 | 0.5 | 0.45 | 0.391 | 0.258
NCI-H1944 | 0.586 | 0.601 | 0.554 | 0.254 | 0.112 | 1.11 | 1.01 | 0.897 | 0.692 | 0.209 | 1.24 | 1.15 | 1.17 | 0.509 | 0.259 | 0.59 | 0.572 | 0.321 | 0.192 | 0.131
NCI-H1975 | 0.286 | 0.29 | 0.306 | 0.178 | 0.173 | 1.07 | 1.14 | 0.463 | 0.228 | 0.179 | 1.1 | 1.04 | 0.586 | 0.218 | 0.191 | 0.741 | 0.714 | 0.372 | 0.18 | 0.186
NCI-H1993 | 0.545 | 0.513 | 0.516 | 1.17 | 0.409 | 1.1 | 1.01 | 0.583 | 0.673 | 0.513 | 0.689 | 0.723 | 0.622 | 0.599 | 0.579 | 0.723 | 0.904 | 0.547 | 0.471 | 0.317
NCI-H2009 | 1.08 | 0.882 | 0.473 | 0.127 | 0.0868 | 1.25 | 0.87 | 0.366 | 0.0871 | 0.0975 | 1.23 | 0.722 | 0.29 | 0.156 | 0.119 | 0.604 | 0.552 | 0.289 | 0.115 | 0.0881
NCI-H2023 | 0.265 | 0.282 | 0.152 | 0.0833 | 0.0801 | 0.986 | 0.794 | 0.667 | 0.135 | 0.0835 | 0.8 | 0.631 | 0.478 | 0.0945 | 0.0741 | 0.773 | 0.388 | 0.259 | 0.0711 | 0.061
NCI-H2085 | 0.94 | 0.882 | 0.827 | 0.772 | 0.406 | 1.1 | 1.15 | 0.848 | 0.646 | 0.484 | 0.795 | 0.967 | 0.705 | 0.57 | 0.404 | 0.857 | 0.739 | 0.652 | 0.621 | 0.368
NCI-H2087 | 0.666 | 0.581 | 0.263 | 0.113 | 0.105 | 1.11 | 0.813 | 0.397 | 0.156 | 0.153 | 0.93 | 0.808 | 0.579 | 0.217 | 0.183 | 0.862 | 0.174 | 0.304 | 0.0713 | 0.109
NCI-H2126 | 0.628 | 0.742 | 0.628 | 0.577 | 0.3 | 0.821 | 0.815 | 0.812 | 0.728 | 0.369 | 0.712 | 0.673 | 0.692 | 0.51 | 0.315 | 0.841 | 0.837 | 0.707 | 0.515 | 0.275
NCI-H2228 | 0.348 | 0.332 | 0.166 | 0.092 | 0.112 | 1.13 | 0.407 | 0.203 | 0.0863 | 0.0652 | 0.569 | 0.666 | 0.186 | 0.217 | 0.112 | 0.429 | 0.374 | 0.226 | 0.0768 | 0.217
NCI-H2347 | 0.43 | 0.391 | 0.409 | 0.357 | 0.366 | 0.86 | 0.64 | 0.639 | 0.334 | 0.206 | 1 | 0.918 | 0.88 | 0.606 | 0.458 | 0.584 | 0.453 | 0.507 | 0.327 | 0.281
NCI-H2405 | 1 | 0.91 | 0.552 | 0.228 | 0.184 | 0.992 | 0.551 | 0.0966 | 0.084 | 0.0831 | 0.965 | 0.651 | 0.393 | 0.237 | 0.182 | 1.03 | 0.784 | 0.543 | 0.243 | 0.197
NCI-H3122 | 0.196 | 0.206 | 0.191 | 0.138 | 0.105 | 1.02 | 1.03 | 0.912 | 0.253 | 0.196 | 1.04 | 0.957 | 0.892 | 0.262 | 0.174 | 0.926 | 1.09 | 0.618 | 0.202 | 0.098
